According to patent US11691972B2, “Compounds for targeted degradation of BRD9” (C4 Therapeutics, Inc., priority 2020, dated 2023):
Like-named read-outs stand apart in the source and are kept apart here.

Molecular target: T1, BRD9 (Homo sapiens, UniProt Q9H8M2)
T1 sequence (Q9H8M2 1-597): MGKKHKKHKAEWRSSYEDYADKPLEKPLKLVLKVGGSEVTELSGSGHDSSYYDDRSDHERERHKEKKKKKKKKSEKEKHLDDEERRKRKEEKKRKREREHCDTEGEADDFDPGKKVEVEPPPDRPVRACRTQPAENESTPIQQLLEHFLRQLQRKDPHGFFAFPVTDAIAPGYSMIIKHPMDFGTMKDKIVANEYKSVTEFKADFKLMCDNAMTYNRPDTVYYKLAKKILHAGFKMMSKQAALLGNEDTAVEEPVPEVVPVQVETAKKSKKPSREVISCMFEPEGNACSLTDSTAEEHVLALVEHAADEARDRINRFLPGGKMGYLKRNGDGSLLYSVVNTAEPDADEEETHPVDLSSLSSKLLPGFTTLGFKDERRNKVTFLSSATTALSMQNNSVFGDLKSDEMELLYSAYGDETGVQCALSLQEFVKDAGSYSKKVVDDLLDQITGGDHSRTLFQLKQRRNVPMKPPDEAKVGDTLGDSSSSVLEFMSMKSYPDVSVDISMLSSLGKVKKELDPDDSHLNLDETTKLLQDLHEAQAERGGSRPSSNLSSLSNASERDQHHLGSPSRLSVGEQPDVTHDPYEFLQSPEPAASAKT
Experiment: HiBiT BRD9 degradation assay in 293T.166 (BRD9-HiBiT) cells
Type: cell-based
Parameters: endogenously expressing BRD9 with HiBiT fusion tag via CRISPR; host or cells: 293T.166 (BRD9-HiBiT), also expressing LgBiT ectopically
Conditions: 293T.166 cells, 2.0 hours, class symbols, read-out: HiBiT-Degradation 293T.166 BRD9 2.0 hours (DC50)
Method in brief: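 293T.166 cells carrying endogenous CRISPR BRD9-HiBiT and expressing LgBiT treated 2 h at 37° C. with compounds, 11-point half-log titration from 10 μM in duplicate. Remaining BRD9 measured as lytic HiBiT luminescence; untreated cells as negative control, no-reagent wells as positive control.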

| SMILES | DC50 (Table 1) | DC50 (Table 2) |
| --- | --- | --- |
| COc1cc(-c2cn(C)c(=O)c3cnccc23)cc(F)c1C(=O)N1CCC(C2CCN(c3ccc(NC4CCC(=O)NC4=O)cc3F)CC2)CC1 (stereo not drawn) [Compound 215] | < 100 nM | – |
| COc1cc(-c2cn(C)c(=O)c(C)c2C)cc(Cl)c1CN1CCc2c(CC3CCN(c4ccc(NC5CCC(=O)NC5=O)cc4F)CC3)cccc2C1 (stereo not drawn) [Compound 109] | < 100 nM | – |
| COc1cc(-c2cn(C)c(=O)c(C)c2C)cc(Cl)c1CN1CCC(C2CCN(c3ccc(NC4CCC(=O)NC4=O)cc3F)CC2)C(F)(F)C1 (single isomer, unassigned) [Compound 257] | – | < 100 nM |
| COc1cc(-c2cn(C)c(=O)c3cnccc23)cc(Cl)c1CN1CCc2c(CC3CCN(c4ccc(NC5CCC(=O)NC5=O)cc4F)CC3)cccc2C1 (stereo not drawn) [Compound 107] | < 100 nM | – |
| Cc1c(-c2ccc(C(=O)N3CCC(C4CCN(c5ccc(NC6CCC(=O)NC6=O)cc5F)CC4)CC3)c(OC(F)(F)F)c2)cn(C)c(=O)c1C (stereo not drawn) [Compound 212, 3-[3-fluoro-4-[4-[1-[2-(trifluoromethoxy)-4-(1,4,5-trimethyl-6-oxo-3-pyridyl)benzoyl]-4-piperidyl]-1-piperidyl]anilino]piperidine-2,6-dione] | < 100 nM | – |
| COc1cc(-c2cn(C)c(=O)c(C)c2C)cc(Cl)c1CN1CCC(F)(CCC2CCN(c3ccc(NC4CCC(=O)NC4=O)cc3Cl)CC2)CC1 (stereo not drawn) [Compound 263] | – | < 100 nM |
| COc1cc(-c2cn(C)c(=O)c3cnccc23)cc(OC)c1CN1CCN(C(=O)CC2CCN(c3ccc(NC4CCC(=O)NC4=O)cc3C(F)(F)F)CC2)CC1 (single isomer, unassigned) [Compound 55] | < 100 nM | – |
| COc1cc(-c2cn(C)c(=O)c(C)c2C)cc(OC)c1CN1CCC(N2CCN(c3ccc(NC4CCC(=O)NC4=O)cc3F)CC2)C(F)(F)C1 (single isomer, unassigned) [Compound 175, 3-[4-[4-[1-[[2,6-dimethoxy-4-(1,4,5-trimethyl-6-oxo-3-pyridyl)phenyl]methyl]-3,3-difluoro-4-piperidyl]piperazin-1-yl]-3-fluoro-anilino]piperidine-2,6-dione] | < 100 nM | – |
| COc1cc(-c2cn(C)c(=O)c(C)c2C)cc(Cl)c1C(=O)N1CCC(C2CCN(c3ccc(NC4CCC(=O)NC4=O)cc3F)CC2)CC1 (stereo not drawn) [Compound 208, 3-[4-[4-[1-[2-chloro-6-methoxy-4-(1,4,5-trimethyl-6-oxo-3-pyridyl)benzoyl]-4-piperidyl]-1-piperidyl]-3-fluoro-anilino]piperidine-2,6-dione] | < 100 nM | – |
| COc1cc(-c2cn(C)c(=O)c3[nH]ncc23)cc(F)c1CN1CCN(C(=O)NC2CCN(c3ccc(NC4CCC(=O)NC4=O)cc3)CC2)CC1 (stereo not drawn) [Compound 145, N-[1-[4-[(2,6-dioxo-3-piperidyl)amino]phenyl]-4-piperidyl]-4-[[2-fluoro-6-methoxy-4-(6-methyl-7-oxo-1H-pyrazolo[3,4-c]pyridin-4-yl)phenyl]methyl]piperazine-1-carboxamide] | < 100 nM | – |
| COc1cc(-c2cn(C)c(=O)c3cnccc23)cc(F)c1CN1CCC(N2CCN(c3ccc(NC4CCC(=O)NC4=O)cc3F)CC2)C(F)(F)C1 (stereo not drawn) [Compound 189] | < 100 nM | – |
| Cc1c(-c2ccc(C(=O)N3CCC(C4CCN(c5ccc(NC6CCC(=O)NC6=O)cc5F)CC4)CC3)c3[nH]ccc23)cn(C)c(=O)c1C (stereo not drawn) [Compound 217] | < 100 nM | – |
| COc1cc(-c2cn(C)c(=O)c3cnccc23)c(Cl)cc1CN1CCC(N2CCN(c3ccc(NC4CCC(=O)NC4=O)cc3F)CC2)C(F)(F)C1 (stereo not drawn) [Compound 255] | – | < 100 nM |
| COc1cc(-c2cn(C)c(=O)c3[nH]ncc23)c(Cl)cc1CN1CCN(C(=O)CN2CCC(c3ccc(NC4CCC(=O)NC4=O)cc3)CC2)CC1 (stereo not drawn) [Compound 19] | < 100 nM | – |
| COc1cc(-c2cn(C)c(=O)c3cnccc23)cc(Cl)c1CN1C2CCC1CN(C(=O)CC1CCN(c3ccc(NC4CCC(=O)NC4=O)cc3F)CC1)C2 (stereo not drawn) [Compound 271] | – | < 100 nM |
| CN(C(=O)N1CCC(c2ccc(NC3CCC(=O)NC3=O)cc2)CC1)C1CCN(Cc2ccc(-c3cn(C)c(=O)c4ccccc34)cc2OC(F)(F)F)CC1 (stereo not drawn) [Compound 113] | < 100 nM | – |
| COc1cc(-c2cn(C)c(=O)c(C)c2C)cc(Cl)c1CN1CCc2c(CC3CCN(c4ccc(NC5CCC(=O)NC5=O)nc4)CC3)cccc2C1 (stereo not drawn) [Compound 264, 3-[[5-[4-[[2-[[2-chloro-6-methoxy-4-(1,4,5-trimethyl-6-oxo-3-pyridyl)phenyl]methyl]-3,4-dihydro-1H-isoquinolin-5-yl]methyl]-1-piperidyl]-2-pyridyl]amino]piperidine-2,6-dione] | – | < 100 nM |
| COc1cc(-c2cn(C)c(=O)c3[nH]ncc23)cc(OC)c1CN1CCc2cc(N3CCC(c4ccc(NC5CCC(=O)NC5=O)cc4)CC3)ccc2C1 (stereo not drawn) [Compound 206, 3-[4-[1-[2-[[2,6-dimethoxy-4-(6-methyl-7-oxo-1H-pyrazolo[3,4-c]pyridin-4-yl)phenyl]methyl]-3,4-dihydro-1H-isoquinolin-6-yl]-4-piperidyl]anilino]piperidine-2,6-dione] | < 100 nM | – |
| COc1cc(-c2cn(C)c(=O)c(C)c2C)cc(Cl)c1CN1CCC(N2CCN(c3ccc(NC4CCC(=O)NC4=O)cc3F)CC2)C(F)(F)C1 (stereo not drawn) [Compound 190] | < 100 nM | – |
| COc1cc(-c2cn(C)c(=O)c3cnccc23)cc(Cl)c1CN1CCC(CCC2CCN(c3ccc(NC4CCC(=O)NC4=O)cc3F)CC2)CC1 (stereo not drawn) [Compound 150] | < 100 nM | – |
| Cc1c(-c2ccc(C(=O)N3CCC(N4CCN(c5ccc(NC6CCC(=O)NC6=O)cc5F)CC4)C(F)(F)C3)c(OC(F)(F)F)c2)cn(C)c(=O)c1C (stereo not drawn) [Compound 223] | < 100 nM | – |
